The values below come from patent US12295397B2, “Dietary peptides” (Diet4Life APS, priority 2015, dated 2025).

One data set concerns the target pepsin (Homo sapiens, UniProt P0DJD8). The data set can be described thus: Pepsin digestion of meat, resistance of peptide to pepsin degradation. Conditions: present in proteolytic digests. Format: in vitro ADME. On the procedure: Minced meat is diluted 1-10 times with distilled water, adjusted to pH 1-3 with hydrochloric acid, and incubated with 0.01-10% pepsin (w/w) at 4-40° C. for ½-12 h with adequate mixing. Insoluble material is removed by centrifugation at 100-1000×g for 3-30 min, and supernatant is neutralized with NaOH. Using sterile conditions, low molecular weight peptides in supernatant are recovered by tangential ultrafiltration at 4-40° C. for ½-12 h, and excess water is evaporated at 25-50° C. for up to 12 h. The concentrated dialysate is tested for bioactivity with cells and used for further purification by HPLC.

Data set [1] can be described thus: Stability of peptides in Fetal Bovine Serum, remaining activity read out in intestinal cells. Format: in vitro ADME. Conditions: fold more stable than NT(8-13). On the procedure: All peptides were incubated at 10^−5 M with Fetal Bovine Serum (FBS; final concentration of 66.7%) (Sigma Aldrich, Denmark) at 37° C. for 3 hours. The peptide degradation was terminated using 1 M phosphoric acid (final 0.4 M, pH ˜1.2) and neutralized to pH 7.2-7.4 with NaOH before testing activity in intestinal cells. As for small intestine homogenates, a zero degradation control was included for each peptide.
DC7-2, NT, DKPYIL (SEQ ID NO: 8) and NT-(8-13) (final concentration of 10^-6 M) were incubated either with FBS or with 270× diluted intestinal homogenate at 37° C. for various time points with shaking. Degradation was stopped with 1 M phosphoric acid and the samples were subsequently neutralized and immediately tested with intestinal cells as described above. Control for zero degradation was included for each peptide as above. […]
(§1) Notes for Tables 1) Stability in serum is expressed as fraction of peptide activity left after 10 min of incubation in serum at 37° C. compared with undigested sample as described in Examples. 2) Stability in intestine is expressed as % activity left after 30 min incubation in intestine homogenate at 37° C. as described in Examples.

The nature of data set [2]: Stability of peptides in small intestine homogenate, remaining activity read out in intestinal cells. Format: in vitro ADME, mice. Particulars: fold more stable than NT(8-13). On the procedure:
Small intestines from 20 Swiss-Webster males were homogenized in 350 ml Dulbecco's phosphate-buffered saline (PBS) (pH 7.4) (ThermoFischer Scientific, Denmark) with a IKA® basic 18 Ultra-Turrax tissue homogenizer set a speed 5 followed by filtration using 100 μm nylon mesh filter. Protein concentration was 6 mg/ml using the bicinconinic acid assay (ThermoFischer Scientific, Denmark) and bovine serum albumin as standard. The intestine homogenate was diluted 10 times in HBSS containing 25 mM HEPES (pH 7.4), and further diluted 30×, 90×, 270×, 810× or 2430× before incubation with peptides. All solutions were prewarmed to 37° C. before mixing with peptide solutions.
Peptides were incubated at 10^−5 M with dilutions of small intestine homogenate at 37° C. for 90 minutes with shaking. Reactions were stopped by addition of 1 M phosphoric acid (final 0.4 M, pH ˜1.2). Each peptide incubation mix was then neutralized with NaOH to pH 7.2-7.4 and immediately tested for activity in intestinal cells. […]
as §1

No end group written: not given here.

Sequence of pepsin (P0DJD8 63-388): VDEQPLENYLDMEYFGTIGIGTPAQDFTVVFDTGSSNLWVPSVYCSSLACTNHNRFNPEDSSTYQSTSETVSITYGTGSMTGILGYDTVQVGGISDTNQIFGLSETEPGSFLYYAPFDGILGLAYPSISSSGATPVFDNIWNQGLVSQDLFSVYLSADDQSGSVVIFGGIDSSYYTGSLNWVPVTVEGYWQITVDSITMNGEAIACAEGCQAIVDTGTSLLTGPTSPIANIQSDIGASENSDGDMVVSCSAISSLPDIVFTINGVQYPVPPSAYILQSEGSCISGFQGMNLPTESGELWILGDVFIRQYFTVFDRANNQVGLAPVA

As for ASDKPYIL [Peptide 36036, A SDKPYIL], on pepsin, the “Resistance to pepsin degradation” value is given as “resistant to pepsin degradation”.

Take DKPYIL [Peptide 35978, D KPYIL]: the “Stability in serum relative to neurotensin (8-13) RRPYIL” value in data set [1] is listed as “around 100 times”. In data set [2], the “Stability in intestine homogenate relative to neurotensin (8-13) RRPYIL” value is given as 100-1000 ×.
